According to patent US20060088942A1, “Measuring nitric oxide in blood gases and treatments based thereon” (priority 2002, published 2006):

Experiments:
[1] = Infusion in patient with unstable angina (Example II); format: in vivo, human
Description: A person is admitted to a hospital with unstable angina. The patient is given I.V. nitroglycerin, heparin and a beta blocker. However, the patient continues to experience chest pain at rest. The patient's normal NO level is known from past testing. […] Infusion at a rate of 5 nmol/min of NO in 0.9% NaCl is effected. The chest pain resolves.

[2] = Transfusion of NO-doped blood unit in patient with severe coronary artery disease (Example VII); format: in vivo, human; settings: person; second blood unit doped with NO, 1:250 molar ratio of NO to hemoglobin
[3] = Infusion in patient with primary pulmonary hypertension class II (Example III); format: in vivo, human
Description: A person with primary pulmonary hypertension class II presents complaining with shortness of breath. The patient's normal NO level is know from prior testing. […] Infusion of NO in 0.9% NaCl at a rate of 5 nmol/min of NO is effected. The shortness of breath symptom resolves. After three days of therapy, pulmonary artery pressure has dropped 5 mm of mercury.

[4] = system: outdated red blood cells; experiment: Organ chamber bioassay of vasodilator response at low pO2, outdated red blood cells (Example V); format: cell-based; settings: for relaxations: 1:250 molar ratio NO or nitrite to hemoglobin, deoxygenated with argon, then oxygenated by air, FIG. 3
Description: Samples from each set were deoxygenated by bubbling argon gas therethrough and then admixed with PBS, PBS with NO dissolved therein or PBS with sodium nitrite dissolved therein. The treatments loaded the red blood cells with 1:250 molar ratio NO or nitrite to hemoglobin. The red blood cells were then oxygenated by exposure to air.

[5] = system: Red cells; experiment: Storage of red cells incubated with NO at weekly intervals (Example VI); format: cell-based; settings: 1:250 molar ratio NO to hemoglobin, 10 minutes at weekly intervals; at 8 weeks
Procedure: Red cells are incubated at a molar ratio of 1:250 NO to hemoglobin for 10 minutes at weekly intervals. At 8 weeks, NO levels and vasodilator response are preserved.

[6] = system: native fresh red blood cells
Procedure: The samples were deoxygenated by placing them in a bioassay bath at low pO2. Then, in paired samples, sodium nitrite (1:200 molar ratio of nitite to hemoglobin in phosphate buffered saline) was added to the deoxygenated red blood cells for 10 minutes. The samples were then re-oxygenated by reintroducing air followed by shaking.

[7] = target: hemoglobin (Homo sapiens, UniProt P68871+P69905); settings: PBS pH 7.4, 300 μM nitrite, heme 1 mM; compared to SNO-oxyhemoglobin samples
Procedure: For assay by EPR, spectroscopy was carried out as described in Gow, A. J., et al, Proc. Natl. Acad. Scie. […] SNO-oxyhemoglobin samples (0.5 mM protein) for comparison were prepared as described in Jia, L., et al, Nature, 380, 221-226 (1996).
Comparison was to SNO-oxyhemoglobin samples (0.5 mM protein) prepared as described in Jia, L., et al, Nature 380, 221-226 (1996).

[8] = anaerobic saturated solution in saline infused at 100 nmol/min

Chain of hemoglobin (P69905 2-142 limits assumed): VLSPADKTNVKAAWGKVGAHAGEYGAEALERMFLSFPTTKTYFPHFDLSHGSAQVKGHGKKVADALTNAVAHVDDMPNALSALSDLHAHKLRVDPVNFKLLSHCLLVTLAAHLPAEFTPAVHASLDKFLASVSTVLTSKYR
Chain of hemoglobin (P68871 2-147 limits assumed): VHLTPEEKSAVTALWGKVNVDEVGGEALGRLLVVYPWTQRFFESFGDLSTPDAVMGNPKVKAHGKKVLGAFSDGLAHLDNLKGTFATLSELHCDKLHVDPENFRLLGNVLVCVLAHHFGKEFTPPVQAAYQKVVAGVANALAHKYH

[N]=O [NO, nitric oxide]
chest pain ([1]; person, unstable angina, infusion 5 nmol/min of NO in 0.9% NaCl): resolves
chest pain on transfusion [2]: not experienced
drop of pulmonary artery pressure ([3]; after three days of therapy, NO 5 nmol/min): 5 mm of mercury
shortness of breath symptom ([3]; person, infusion of NO in 0.9% NaCl at 5 nmol/min): resolves
relaxations [4]: improved and effectively normalized
vasodilator response [5]: preserved

O=NO [nitrite]
chest pain ([1]; nitrite additionally given at 100 nmol/min with the NO infusion): resolves more quickly
relaxations [4]: improved and effectively normalized
vasodilator response [6]: no effect
oxygen delivery improving activity identified with NO [7]: facilitated

O=NO [sodium nitrite]
vasodilator response ([4]; 1:200 molar ratio nitrite to hemoglobin in PBS, added to deoxygenated cells for 10 minutes, then re-oxygenated, FIG. 2): normalize
oxygen delivery [8]: Improved
